# Laboratory results as given in patent US11603349B2, “Anti-fibrotic compounds” (Certa Therapeutics Pty Ltd, priority 2017, dated 2023).
# Counter-ions that a name gives are not always drawn.
# Legend:
# [1] = tested on: TGF-β induced [14C]-proline incorporation in rat mesangial cells; assay: [14C]-proline incorporation assay (collagen biosynthesis); assay type: cell-based; settings: Rattus norvegicus, Mesangial cell, 44 h, inhibition of TGF-β1 (1 ng/ml) induced [14C]-proline incorporation, IRMC cells
# [2] = in vitro; settings: rat, CC50 (μM)
# [3] = MTS tetrazolium reduction cell viability assay; settings: rat, rat mesangial cells (1097/IRMC cells), TGF-β1 stimulated, CC50 (μM), vs 1% DMSO vehicle
# [4] = Discrete oral pharmacokinetic studies in male Sprague Dawley rats; assay type: in vivo, rat; settings: male SD rats; for change in plasma concentrations between the 75 and 350 mg/kg/day dosing groups: after the initial dose; for adverse compound related effects: 2 and 20 mg/kg single dose, 75 and 350 mg/kg daily (5 days)
# Description: Discrete oral pharmacokinetic studies were performed for example compounds 116, 107, and 102.
# 116: 2 mg/kg and 20 mg/kg of 116 were administered as single doses to male Sprague Dawley (SD) rats. 75 mg/kg and 350 mg/kg of 116 were administered daily (5 days) to male Sprague Dawley (SD) rats.
# 107: 2 mg/kg and 20 mg/kg of 107 were administered as single doses to male Sprague Dawley (SD) rats. 75 mg/kg and 350 mg/kg of 107 were administered daily (5 days) to male Sprague Dawley (SD) rats.
# 102: 2 mg/kg and 20 mg/kg of 102 were administered as single doses to male Sprague Dawley (SD) rats. 75 mg/kg and 350 mg/kg of 102 were administered daily (5 days) to male Sprague Dawley (SD) rats. […] An increase in plasma concentrations were observed between the 75 and 350 mg/kg/day dosing groups.
# [5] = tested on: rat mesangial cells (1097/IRMC cells); assay: MTS tetrazolium reduction cell viability assay; settings: TGF-β1 stimulated IRMC cells, vs 1% DMSO vehicle
# [6] = daily, throughout the 5-day study
Compound,IC50 [1] [µM],CC50 at 48 h [2] [µM],other results
"COc1cc(/C=C/C(=O)Nc2ccc(F)cc2)ccc1C1=CCNCC1 [Example 120, (E)-N-(4-fluorophenyl)-3-(3-methoxy-4-(1,2,3,6-tetrahydropyridin-4-yl)phenyl)acrylamide]",3.22,10.8,–
"COc1cc(/C=C/C(=O)Nc2ccccc2C(=O)O)ccc1C1=CCNCC1 [Example 98, (E)-2-(3-(3-methoxy-4-(1,2,3,6-tetrahydropyridin-4-yl)phenyl)acrylamido)benzoic Acid]",13.5,289,–
"COc1cc(/C=C/C(=O)Nc2ccccc2C(=O)O)ccc1C1=CCN(C)CC1 [Example 99, (E)-2-(3-(3-methoxy-4-(1-methyl-1,2,3,6-tetrahydropyridin-4-yl)phenyl)acrylamido)benzoic Acid]",34.7,> 300,–
"COc1cc(C2CC2C(=O)n2nc(O)c3ccccc32)ccc1C1=CCNCC1 (stereo not shown) [Example 146, (3-hydroxy-1H-indazol-1-yl)(2-(3-methoxy-4-(1,2,3,6-tetrahydropyridin-4-yl)phenyl)cyclopropyl)methanone trifluoroacetic acid salt]",19.6,> 300,–
"COc1cc(/C=C/C(=O)Nc2ccccc2C(=O)O)ccc1CC1CC1 [Example 102, 2-[[(E)-3-[4-(cyclopropylmethyl)-3-methoxyphenyl]prop-2-enoyl]amino]benzoic Acid]",3.87,–,"CC50 at 48 h [3]: 11.4 µM; coverage of IC50 relative to a 200 mg/kg/day regime of FT011 ([4]; 20 mg/kg): superior; coverage of IC50 relative to a 200 mg/kg/day regime of FT011 ([4]; 75 mg/kg): superior; coverage of IC50 relative to a 200 mg/kg/day regime of FT011 ([4]; 350 mg/kg): superior; change in plasma concentrations between the 75 and 350 mg/kg/day dosing groups [4]: An increase; trough concentrations, 75 and 350 mg/kg/day dosing group [4, 6]: consistent with dosing amounts"
"COc1cc(C2CC2C(=O)Nc2ccc(F)cc2)ccc1C1=CCNCC1 (stereo not shown) [Example 143, N-(4-fluorophenyl)-2-(3-methoxy-4-(1,2,3,6-tetrahydropyridin-4-yl)phenyl)cyclopropane carboxamide trifluoroacetic acid salt]",2.81,7.2,–
"COc1ccc(/C=C/C(=O)Nc2ccccc2C(=O)O)c(OCCN(C)C)c1OC [Example 116, (E)-2-(3-(2-(2-(dimethylamino)ethoxy)-3,4-dimethoxyphenyl)acrylamido)benzoic Acid]",–,–,"CC50 [5]: > 300 µM; CC50 at 48 h [3]: 294 µM; coverage of IC50 relative to a 200 mg/kg/day regime of FT011 ([4]; 75 mg/kg): superior; coverage of IC50 relative to a 200 mg/kg/day regime of FT011 ([4]; 350 mg/kg): superior; adverse compound related effects [4]: No adverse compound related effects were observed; change in plasma concentrations between the 75 and 350 mg/kg/day dosing groups [4]: little to no increase; trough concentrations, 350 mg/kg/day dosing group [4, 6]: lower than expected"
"COc1cc(C2CC2C(=O)Nc2ccccc2-n2cnc(C)n2)ccc1C1=CCNCC1 (stereo not shown) [Example 144, 2-(3-methoxy-4-(1,2,3,6-tetrahydropyridin-4-yl)phenyl)-N-(2-(3-methyl-1H-1,2,4-triazol-1-yl)phenyl)cyclopropanecarboxamide trifluoroacetic acid salt]",20.9,81,–
"CN1CCOc2ccc(/C=C/C(=O)Nc3ccccc3C(=O)O)cc21 [Example 107, 2-[[(E)-3-(4-methyl-2,3-dihydro-1,4-benzoxazin-6-yl)prop-2-enoyl]amino]benzoic Acid]",14.9,–,"CC50 at 48 h [3]: > 100 µM; coverage of IC50 relative to a 200 mg/kg/day regime of FT011 ([4]; 350 mg/kg): superior; adverse compound related effects [4]: No adverse compound related effects were observed; change in plasma concentrations between the 75 and 350 mg/kg/day dosing groups [4]: an increase; trough concentrations, 75 and 350 mg/kg/day dosing group [4, 6]: consistent with dosing amounts"
"COc1cc(C2CC2C(=O)Nc2ccc(C#N)cc2)ccc1C1=CCNCC1 (stereo not shown) [Example 121, N-(4-cyanophenyl)-2-(3-methoxy-4-(1,2,3,6-tetrahydropyridin-4-yl)phenyl)cyclopropane Carboxamide]",3.79,8.47,–
"COc1cc(/C=C/C(=O)Nc2ccccc2-n2cnc(C)n2)ccc1C1=CCNCC1 [Example 140, (E)-3-(3-methoxy-4-(1,2,3,6-tetrahydropyridin-4-yl)phenyl)-N-(2-(3-methyl-1H-1,2,4-triazol-l-yl)phenyl)acrylamide trifluoroacetic acid salt]",8.47,36.1,–
"COc1cc(C2CC2C(=O)Nc2ccccc2F)ccc1C1=CCNCC1 (stereo not shown) [Example 145, N-(2-fluorophenyl)-2-(3-methoxy-4-(1,2,3,6-tetrahydropyridin-4-yl)phenyl)cyclopropane carboxamide trifluoroacetic acid]",3.71,11.7,–
"COc1cc(/C=C/C(=O)n2nc(O)c3ccccc32)ccc1C1=CCNCC1 [Example 142, (E)-1-(3-hydroxy-1H-indazol-1-yl)-3-(3-methoxy-4-(1,2,3,6-tetrahydropyridin-4-yl)phenyl)prop-2-en-1-one]",31.7,> 300,–
"COc1cc(/C=C/C(=O)Nc2ccc(C#N)cc2)ccc1C1=CCNCC1 [Example 139, (E)-N-(4-cyanophenyl)-3-(3-methoxy-4-(1,2,3,6-tetrahydropyridin-4-yl)phenyl)acrylamide trifluoroacetic acid salt]",5.36,9.03,–
"COc1ccc(/C=C/C(=O)Nc2ccccc2C(=O)O)cc1C1=CCN(C)CC1 [Example 104, (E)-2-(3-(4-methoxy-3-(1-methyl-1,2,3,6-tetrahydropyridin-4-yl)phenyl)acrylamido)benzoic acid trifluoroacetic acid salt]",41.4,281,–
"COc1cc(/C=C/C(=O)Nc2ccccc2F)ccc1C1=CCNCC1 [Example 141, (E)-N-(2-fluorophenyl)-3-(3-methoxy-4-(1,2,3,6-tetrahydropyridin-4-yl)phenyl)acrylamide]",4.85,13.5,–
